Patent publication US9034921B2, “Diphenylmethane derivatives as SGLT2 inhibitors” (GREEN CROSS CORPORATION, priority 2011, dated 2015)

biological target: human SGLT2 (Homo sapiens (Human), UniProt P31639); assay: Inhibitory effects on human SGLT2 activities (14C-AMG uptake, sodium-dependent glucose transport assay); assay type: cell-based; settings: CHO cells stably expressing hSGLT2, 37° C., 2 h, single determinations
Method in brief: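 CHO cells stably expressing hSGLT2 were preincubated 10 min at 37 °C in choline (Na+-free) buffer, then exposed 2 h at 37 °C to compound in Na+ uptake buffer with 8 μM 14C-AMG and 1 mM unlabeled AMG. Radioactivity was scintillation counted; IC50 came from nonlinear regression.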

Sequence of human SGLT2 (P31639 whole entry): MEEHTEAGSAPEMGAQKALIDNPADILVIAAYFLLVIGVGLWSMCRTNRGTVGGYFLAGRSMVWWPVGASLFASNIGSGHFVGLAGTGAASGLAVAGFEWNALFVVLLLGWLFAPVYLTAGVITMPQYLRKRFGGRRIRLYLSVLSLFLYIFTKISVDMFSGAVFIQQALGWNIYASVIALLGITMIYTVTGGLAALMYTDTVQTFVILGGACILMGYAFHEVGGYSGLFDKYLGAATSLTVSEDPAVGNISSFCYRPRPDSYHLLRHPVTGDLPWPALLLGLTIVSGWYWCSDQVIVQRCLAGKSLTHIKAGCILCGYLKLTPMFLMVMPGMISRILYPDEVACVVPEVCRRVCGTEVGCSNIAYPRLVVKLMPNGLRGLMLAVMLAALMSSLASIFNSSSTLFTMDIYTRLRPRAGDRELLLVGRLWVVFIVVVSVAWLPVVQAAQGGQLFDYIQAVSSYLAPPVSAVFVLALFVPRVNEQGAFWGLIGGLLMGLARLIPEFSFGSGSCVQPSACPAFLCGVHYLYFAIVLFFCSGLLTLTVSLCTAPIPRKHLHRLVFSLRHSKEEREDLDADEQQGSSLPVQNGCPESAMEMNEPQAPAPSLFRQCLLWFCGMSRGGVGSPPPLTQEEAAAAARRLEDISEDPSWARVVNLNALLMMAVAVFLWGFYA

Compound | IC50 [nM]
N#CCc1ccc(Cc2cc([C@@H]3O[C@H](CO)[C@@H](O)[C@H](O)[C@H]3O)c3c(c2Cl)OCC3)cc1 [Example E203, 2-(4-((7-Chloro-4-((2S,3R,4R,5S,6R)-3,4,5-trihydroxy-6-(hydroxymethyl)tetrahydro-2H-pyran-2-yl)-2,3-dihydrobenzofuran-6-yl)methyl)phenyl)acetonitrile] | 1.81
OC[C@H]1O[C@@H](c2cc(Cc3ccc(OC4COC4)cc3)c(Cl)c3c2CCO3)[C@H](O)[C@@H](O)[C@@H]1O [Example E204, (2S,3R,4R,5S,6R)-2-(7-Chloro-6-(4-(oxetan-3-yloxy)benzyl)-2,3-dihydrobenzofuran-4-yl)-6-(hydroxymethyl)tetrahydro-2H-pyran-3,4,5-triol] | 5.05
CC(C)Oc1ccc(Cc2cc([C@@H]3O[C@H](CO)[C@@H](O)[C@H](O)[C@H]3O)c3c(c2Cl)OCC3)cc1 [Example E205, (2S,3R,4R,5S,6R)-2-(7-Chloro-6-(4-isopropoxybenzyl)-2,3-dihydrobenzofuran-4-yl)-6-(hydroxymethyl)tetrahydro-2H-pyran-3,4,5-triol] | 1.96
OC[C@H]1O[C@@H](c2cc(Cc3ccc(SC4CC4)cc3)c(Cl)c3c2CCO3)[C@H](O)[C@@H](O)[C@@H]1O [Example E206, (2S,3R,4R,5S,6R)-2-(7-Chloro-6-(4-(cyclopropylthio)benzyl)-2,3-dihydrobenzofuran-4-yl)-6-(hydroxymethyl)tetrahydro-2H-pyran-3,4,5-triol] | 1.88
COc1ccc(Cc2cc([C@@H]3O[C@H](CO)[C@@H](O)[C@H](O)[C@H]3O)c3c(c2Cl)OCC3)s1 [Example E207, (2S,3R,4R,5S,6R)-2-(7-Chloro-6-((5-methoxythiophen-2-yl)methyl)-2,3-dihydrobenzofuran-4-yl)-6-(hydroxymethyl)tetrahydro-2H-pyran-3,4,5-triol] | 3.75
CCN(CC)c1ccc(Cc2cc([C@@H]3O[C@H](CO)[C@@H](O)[C@H](O)[C@H]3O)ccc2Cl)cc1 [Example E210, (2S,3R,4R,5S,6R)-2-(4-Chloro-3-(4-(diethylamino)benzyl)phenyl)-6-(hydroxymethyl)tetrahydro-2H-pyran-3,4,5-triol] | 89.3
OC[C@H]1O[C@@H](c2ccc(Cl)c(Cc3ccc(N4CCOCC4)cc3)c2)[C@H](O)[C@@H](O)[C@@H]1O [Example E211, (2S,3R,4R,5S,6R)-2-(4-Chloro-3-(4-morpholinobenzyl)phenyl)-6-(hydroxymethyl)tetrahydro-2H-pyran-3,4,5-triol] | 9.08
CCOc1ccc(Cc2cc([C@@H]3O[C@H](CO)[C@@H](O)[C@H](O)[C@H]3O)c3c(c2Cl)N(C)CCO3)cc1 [Example E213, (2S,3R,4R,5S,6R)-2-(5-Chloro-6-(4-ethoxybenzyl)-4-methyl-3,4-dihydro-2H-benzo[b][1,4]oxazin-8-yl)-6-(hydroxymethyl)tetrahydro-2H-pyran-3,4,5-triol] | 6.12
CCc1ccc(Cc2cc([C@@H]3O[C@H](CO)[C@@H](O)[C@H](O)[C@H]3O)c3c(c2Cl)NCCO3)cc1 [Example E214, (2S,3R,4R,5S,6R)-2-(5-Chloro-6-(4-ethylbenzyl)-3,4-dihydro-2H-benzo[b][1,4]oxazin-8-yl)-6-(hydroxymethyl)tetrahydro-2H-pyran-3,4,5-triol] | 3.17
CCc1ccc(Cc2cc([C@@H]3O[C@H](CO)[C@@H](O)[C@H](O)[C@H]3O)c3c(c2Cl)C(C)CO3)cc1 (stereo partly drawn) [Example E215, (2S,3R,4R,5S,6R)-2-(4-Chloro-5-(4-ethylbenzyl)-3-methyl-2,3-dihydrobenzofuran-7-yl)-6-(hydroxymethyl)tetrahydro-2H-pyran-3,4,5-triol] | 0.891
COc1ccc(Cc2cc([C@@H]3O[C@H](CO)[C@@H](O)[C@H](O)[C@H]3O)c3c(c2Cl)C(C)CO3)cc1 (stereo partly drawn) [Example E216, (2S,3R,4R,5S,6R)-2-(4-Chloro-5-(4-methoxybenzyl)-3-methyl-2,3-dihydrobenzofuran-7-yl)-6-(hydroxymethyl)tetrahydro-2H-pyran-3,4,5-triol] | 1.22
CCc1ccc(Cc2cc([C@@H]3O[C@H](CO)[C@@H](O)[C@H](O)[C@H]3O)c3c(c2Cl)C(C)(C)CO3)cc1 [Example E217, (2S,3R,4R,5S,6R)-2-(4-Chloro-5-(4-ethylbenzyl)-3,3-dimethyl-2,3-dihydrobenzofuran-7-yl)-6-(hydroxymethyl)tetrahydro-2H-pyran-3,4,5-triol] | 1.76
COc1ccc(Cc2cc([C@@H]3O[C@H](CO)[C@@H](O)[C@H](O)[C@H]3O)c3c(c2Cl)C(C)(C)CO3)cc1 [Example E218, (2S,3R,4R,5S,6R)-2-(4-Chloro-5-(4-methoxybenzyl)-3,3-dimethyl-2,3-dihydrobenzofuran-7-yl)-6-(hydroxymethyl)tetrahydro-2H-pyran-3,4,5-triol] | 4.66
COc1ccc(Cc2cc([C@@H]3O[C@H](CO)[C@@H](O)[C@H](O)[C@H]3O)c3c(c2Cl)CC(C)(C)O3)cc1 [Example E219, (2S,3R,4R,5S,6R)-2-(4-Chloro-5-(4-methoxybenzyl)-2,2-dimethyl-2,3-dihydrobenzofuran-7-yl)-6-(hydroxymethyl)tetrahydro-2H-pyran-3,4,5-triol] | 1.61
CCOc1ccc(Cc2cc([C@@H]3O[C@H](CO)[C@@H](O)[C@H](O)[C@H]3O)c3c(c2Cl)CC(C)(C)O3)cc1 [Example E220, (2S,3R,4R,5S,6R)-2-(4-Chloro-5-(4-ethoxybenzyl)-2,2-dimethyl-2,3-dihydrobenzofuran-7-yl)-6-(hydroxymethyl)tetrahydro-2H-pyran-3,4,5-triol] | 1.27
OC[C@H]1O[C@@H](c2ccc(Cl)c(Cc3ccc(N4CCCC4)cc3)c2)[C@H](O)[C@@H](O)[C@@H]1O [Example E221] | 2.17
CCOc1ccc(Cc2cc([C@@H]3O[C@H](CO)[C@@H](O)[C@H](O)[C@H]3O)c3c(c2Cl)C(C)CO3)cc1 (stereo partly drawn) [Example E222, (2S,3R,4R,5S,6R)-2-(4-Chloro-5-(4-ethoxybenzyl)-3-methyl-2,3-dihydrobenzofuran-7-yl)-6-(hydroxymethyl)-tetrahydro-2H-pyran-3,4,5-triol] | 1.99
CCOc1ccc(Cc2cc([C@@H]3O[C@H](CO)[C@@H](O)[C@H](O)[C@H]3O)c3c(c2Cl)C(C)(C)CO3)cc1 [Example E223, (2S,3R,4R,5S,6R)-2-(4-Chloro-5-(4-ethoxybenzyl)-3,3-dimethyl-2,3-dihydrobenzofuran-7-yl)-6-(hydroxymethyl)-tetrahydro-2H-pyran-3,4,5-triol] | 4.16
CCOc1ccc(Cc2cc([C@@H]3O[C@H](CO)[C@@H](O)[C@H](O)[C@H]3O)c3c(c2Cl)OCC3C)cc1 (stereo partly drawn) [Example E224, (2S,3R,4R,5S,6R)-2-(7-Chloro-6-(4-ethoxybenzyl)-3-methyl-2,3-dihydrobenzofuran-4-yl)-6-(hydroxymethyl)-tetrahydro-2H-pyran-3,4,5-triol] | 0.867
CCOc1ccc(Cc2cc([C@@H]3O[C@H](CO)[C@@H](O)[C@H](O)[C@H]3O)c3c(c2Cl)OCC3(C)C)cc1 [Example E225, (2S,3R,4R,5S,6R)-2-(7-Chloro-6-(4-ethoxybenzyl)-3,3-dimethyl-2,3-dihydrobenzofuran-4-yl)-6-(hydroxymethyl)-tetrahydro-2H-pyran-3,4,5-triol] | 1.82
CCOc1ccc(Cc2cc([C@@H]3O[C@H](CO)[C@@H](O)[C@H](O)[C@H]3O)c3c(c2Cl)OCC3=O)cc1 [Example E226] | 10.5
CCOc1ccc(Cc2cc([C@@H]3O[C@H](CO)[C@@H](O)[C@H](O)[C@H]3O)c3c(c2Cl)OCC3OC)cc1 (stereo partly drawn) [Example E227, (2S,3R,4R,5S,6R)-2-(7-Chloro-6-(4-ethoxybenzyl)-3-methoxy-2,3-dihydrobenzofuran-4-yl)-6-(hydroxymethyl)-tetrahydro-2H-pyran-3,4,5-triol] | 8.99
CCCc1c(Cc2ccc(OCC)cc2)cc([C@@H]2O[C@H](CO)[C@@H](O)[C@H](O)[C@H]2O)c2c1OCC2 [Example E229, (2S,3R,4R,5S,6R)-2-(6-(4-Ethoxybenzyl)-7-propyl-2,3-dihydrobenzofuran-4-yl)-6-(hydroxymethyl)-tetrahydro-2H-pyran-3,4,5-triol] | 5.6
OC[C@H]1O[C@@H](c2cc(Cc3ccc4c(c3)NCCC4)c(Cl)c3c2CCO3)[C@H](O)[C@@H](O)[C@@H]1O [Example E230, (2S,3R,4R,5S,6R)-2-(7-Chloro-6-((1,2,3,4-tetrahydroquinolin-7-yl)methyl)-2,3-dihydrobenzofuran-4-yl)-6-(hydroxymethyl)-tetrahydro-2H-pyran-3,4,5-triol] | 2.49
OC[C@H]1O[C@@H](c2cc(Cc3ccc4c(c3)NCCO4)c(Cl)c3c2CCO3)[C@H](O)[C@@H](O)[C@@H]1O [Example E231, (2S,3R,4R,5S,6R)-2-(7-Chloro-6-((3,4-dihydro-2H-benzo[b][1,4]oxazin-6-yl)methyl)-2,3-dihydrobenzofuran-4-yl)-6-(hydroxymethyl)-tetrahydro-2H-pyran-3,4,5-triol] | 5.56
OC[C@H]1O[C@@H](c2cc(Cc3ccc(OC4CCCC4)cc3)c(Cl)c3c2CCO3)[C@H](O)[C@@H](O)[C@@H]1O [Example E232, (2S,3R,4R,5S,6R)-2-(7-Chloro-6-(4-(cyclopentyloxy)benzyl)-2,3-dihydrobenzofuran-4-yl)-6-(hydroxymethyl)-tetrahydro-2H-pyran-3,4,5-triol] | 1.6
OC[C@H]1O[C@@H](c2cc(Cc3ccc(C4CCCC4)cc3)c(Cl)c3c2CCO3)[C@H](O)[C@@H](O)[C@@H]1O [Example E233, (2S,3R,4R,5S,6R)-2-(7-Chloro-6-(4-cyclopentylbenzyl)-2,3-dihydrobenzofuran-4-yl)-6-(hydroxymethyl)-tetrahydro-2H-pyran-3,4,5-triol] | 1.16
OC[C@H]1O[C@@H](c2cc(Cc3ccc(OC4CCC4)cc3)c(Cl)c3c2CCO3)[C@H](O)[C@@H](O)[C@@H]1O [Example E234, (2S,3R,4R,5S,6R)-2-(7-Chloro-6-(4-cyclobutoxybenzyl)-2,3-dihydrobenzofuran-4-yl)-6-(hydroxymethyl)-tetrahydro-2H-pyran-3,4,5-triol] | 2.82
